Data published in patent EP0799614A1, “REMEDY FOR ISCHEMIC DISEASES” (CHUGAI SEIYAKU KABUSHIKI KAISHA, priority 1994, dated 1996).
Like-named read-outs stand apart in the source and are kept apart here.

Key:
rabbit LDL = experiment: Inhibitory action on lipid peroxidation in vitro, Method A: oxidation of LDL by soybean lipoxygenase, fluorescence of LDL fraction; assay type: biochemical; conditions: fluorescence intensity of oxidized LDL fraction, SLO 40 µg/ml, 37°C, 24 hours
Procedure: A test compound was added to rabbit LDL prepared according to the method of Havel, et al. (Havel RJ et al., J. Clin. Invest., 34, 1345 (1955)), and then a soybean lipoxygenase type-IS (SLO) was added to a final concentration of 40 µg/ml. Oxidation of LDL was carried out at 37°C in a CO2 incubator for 24 hours. The oxidized LDL solution was separated by gel-permeation chromatography, and the fluorescence intensity of the LDL fraction was measured at an excitation wavelength of 360 nm and an emission wavelength of 430 nm.

thoracic aorta = experiment: Vasorelaxing action in vitro: relaxation of 30 mM K+ contraction of aortic rings; assay type: cell-based, Sprague-Dawley (Crj) male rat; conditions: contraction at 30 mM K+ taken as 100%
Procedure: The thoracic aorta was excised from a Sprague-Dawley (Crj) male rat weighing between 350 and 550 g, and dissected free from surrounding connective tissue. The vessel was cut into a ring having a width of 2 to 3 mm. The resulting preparation was mounted for isometric tension recording in an organ bath filled with 10 ml of a Krebs-Henseleit solution (K-H solution, pH 7.4, 37°C), which was bubbled with 95% 02/5% CO2. Isometric tension changes were monitored with an isometric tranducer (TB-611T, manufactured by Nihon Kohden Corp.). Before starting the experiment, the preparation was given a stretched tension of 2 g and allowed to equilibrate for 30 minutes (the K-H solution was exchanged for a fresh one every 15 minutes). At first, the preparation was precontracted by changing the solution in the bath to one containing 30 mM K^+. After the contraction was maintained for 20 minutes, the preparation was washed with K-H solution. Sixty minutes thereafter (the K-H solution was exchanged with a fresh one every 20 minutes), contraction was again induced in the same manner as described above. […]

[1] = tested on: Isolated ventricular myocytes; experiment: Inhibitory action on calcium overload in vitro, Method B: veratridine-treated myocytes; assay type: cell-based, male Sprague-Dawley rat; conditions: veratridine 50 µg/ml, read-out: Concentration at Which Cells Survived Almost Completely
Procedure: (§1) Isolated ventricular myocytes were prepared from the heart of male Sprague-Dawley rat weighing 300 to 500 g, using an enzyme-perfusion method. […]
The efficacy was evaluated in the same manner as in Method A, except for using 50 µg/ml of veratridine in place of veratrine (100 µg/ml).

[2] = tested on: coronary preparations from dogs; experiment: Antispasmodic action in vitro: 3,4-diaminopyridine-induced rhythmic contractions; assay type: cell-based; conditions: Fig. 2; 3,4-DAP 10 mM; compared with diltiazem
Procedure: Following repeated replacements of PSS in an organ bath at 15-min intervals, the tension on each of the coronary preparations from dogs stabilized at 2 g; then, PSS was replaced by a 30 mM K^+ PSS to contract the preparations. The 30mM K^+ PSS was replaced by normal PSS in an organ bath to relax the preparations, followed by replacements with PSS at 20-min intervals to stabilize the tension for about 1 h, followed by the addition of 3,4-DAP (10 mM) to induce rhythmic contractions. […] The drug concentration allowing for complete suppression of the amplitude of the 3,4-DAP-induced rhythmic contractions may be designated "elimination dose".

[3] = tested on: Thoracic aorta preparations from rats; experiment: Vasorelaxing action in vitro: effect on CaCl2-induced contractions; assay type: cell-based; conditions: Fig. 1; CaCl2 0.01 - 10 mM in 60 mM K+ PSS; compared with diltiazem
Procedure: Thoracic aorta preparations from rats were stabilized in normal physiological salt solution (PSS) for at least 30 min, contracted with 60 mM KCl and, thereafter, relaxed with normal PSS. Twenty minutes later, the preparations were exposed to Ca^2+ -free 60 mM K^+ PSS (containing 0.1 mM EGTA) for 20 min, then to nominally Ca^2+ -free 60 mM K^+ PSS which is free of EGTA for 20 min, followed by cumulative application of CaCl2 (0.01 - 10 mM) to construct a dose-response curve. […] The response was converted to percent contraction, with the contraction caused by 10 mM CaCl2 being taken as 100%. The data in Fig. 1 are expressed by the mean of 5 cases ± standard error.

[4] = tested on: Isolated ventricular myocytes; experiment: Inhibitory action on calcium overload in vitro, Method A: veratrine-treated myocytes, survival rate; assay type: cell-based, male Sprague-Dawley rat; parameters: key: ++: The cells survived almost completely at 10^-7 M.; +: The cells survived almost completely at 10^-6 M.; The cells died almost completely at 10 M^-6 M; conditions: 30 minutes pretreatment, veratrine 100 µg/ml, observed five minutes later
Procedure: as §1

Male Sprague-Dawley rats = experiment: Preventive effect on ventricular arrhythmia caused by occlusion and reperfusion of the coronary artery; assay type: in vivo; conditions: Fig. 4; 0.5, 1 and 3 mg/kg via femoral vein 10 min before occlusion; compared with diltiazem 1 and 3 mg/kg
Procedure: Male Sprague-Dawley rats (450 - 600 g) were anethetized with pentobarbital, subjected to thoracotomy under artificial respiration, had the arterior descending branch of the left coronary artery occluded with a silk ligature for 5 min, had the occlusion removed to permit reperfusion and examined for 10 min. A standard limb lead II electrocardiogram was recorded to check for the occurrence of ventricular arrythmia. […] The parethesized numeral at the bottom of each bar in Fig. 4 represents the number of cases.

Row | IC50 (thoracic aorta; Rattus norvegicus) [nM] | SMILES | IC50 (thoracic aorta) [nM] | Survival Rate of Cells [4] | also measured
1 |  | CN(CCCN1C(=O)CSC1c1cc(C(C)(C)C)c(O)c(C(C)(C)C)c1)CCOc1ccc2c(c1)OCO2 (single isomer, unassigned; (+)) [Compound 70, (+)-2-(3,5-Di-tert-butyl-4-hydroxyphenyl)-3-[3-[N-methyl-N-[2-(3,4-methylenedioxyphenoxy)ethyl]amino]propyl]-1,3-thiazolidin-4-one] | 300 |  | Percent (%) of Control (rabbit LDL; 5 x 10^-6 M, 5 µM): 5.1%; minimal effective concentration ([1]; Rattus norvegicus, Ventricular myocyte): 0.32 µM
2 |  | CC1SC(c2cc(C(C)(C)C)c(O)c(C(C)(C)C)c2)N(CCCN(C)CCOc2ccc3c(c2)OCO3)C1=O (single isomer, unassigned; (+)) [Compound 74, (+)-2,5-Cis-2-[3,5-di-tert-butyl-4-hydroxyphenyl)-3-[3-[N-methyl-N-[2-(3,4-methylenedioxyphenoxy)ethyl]amino]propyl]-5-methyl-1,3-thiazolidin-4-one] | 141 |  | 
3 |  | CN(CCCN1C(=O)CSC1c1cc(C(C)(C)C)c(O)c(C(C)(C)C)c1)CCOc1ccc2c(c1)OCO2 (single isomer, unassigned; (-)) [Compound 71, (-)-2-(3,5-Di-tert-butyl-4-hydroxyphenyl)-3-[3-[N-methyl-N-[2-(3,4-methylenedioxyphenoxy)ethyl]amino]propyl]-1,3-thiazolidin-4-one] | 27 |  | suppression of 3,4-DAP-induced rhythmic contractions [2]: capable of suppressing the 3,4-DAP-induced rhythmic contractions at a lower concentration than diltiazem; Percent (%) of Control (rabbit LDL; 5 x 10^-6 M, 5 µM): 2.8%; minimal effective concentration [1]: 0.32 µM; inhibitory action against the contraction caused by CaCl2 [3]: need be applied in a by far smaller amount than diltiazem to exhibit an outstanding inhibitory action
4 |  | CC1SC(c2cc(C(C)(C)C)c(O)c(C(C)(C)C)c2)N(CCCN(C)CCOc2ccc3c(c2)OCO3)C1=O (single isomer, unassigned; (-)) [Compound 75, (-)-2,5-Cis-2-[3,5-di-tert-butyl-4-hydroxyphenyl)-3-[3-[N-methyl-N-[2-(3,4-methylenedioxyphenoxy)ethyl]amino]propyl]-5-methyl-1,3-thiazolidin-4-one] | 22 |  | minimal effective concentration [1]: 0.32 µM
5 | 170 | CC(C)c1cc(C2SCC(=O)N2CCCN(C)CCOc2ccc3c(c2)OCO3)cc(C(C)C)c1O (centres unmarked) [Compound 1, 2-(3,5-Diisopropyl-4-hydroxyphenyl)-3-[3-[N-methyl-N-[2-(3,4-methylenedioxyphenoxy)ethyl]amino]propyl]-1,3-thiazolidin-4-one] |  |  | 
6 | 21 | COc1c(C(C)(C)C)cc(C2SCC(=O)N2CCCN(C)CCOc2ccc3c(c2)OCO3)cc1C(C)(C)C (centres unmarked) [Compound 11] |  |  | 
7 | 28 | CN(CCCOc1ccc2c(c1)OCO2)CCCN1C(=O)CSC1c1cc(C(C)(C)C)c(O)c(C(C)(C)C)c1 (centres unmarked) [Compound 17] |  |  | Percent (%) of Control (rabbit LDL; 5 x 10^-6 M): 3.9%
8 | 110 | COc1ccc(CN(C)CCCN2C(=O)CSC2c2cc(C(C)(C)C)c(O)c(C(C)(C)C)c2)cc1OC (centres unmarked) [Compound 19] |  |  | 
9 |  | COc1ccc(CCN(C)CCCN2C(=O)CSC2c2cc(C(C)(C)C)c(O)c(C(C)(C)C)c2)cc1OC (centres unmarked) [Compound 20] |  | + | Percent (%) of Control (rabbit LDL; 5 x 10^-6 M): 0.6%; Percent (%) of Control (rabbit LDL; 5 x 10^-7 M, 0.5 µM): 8.7%
10 |  | CN(CCCN1C(=O)CSC1c1cc(C(C)(C)C)c(O)c(C(C)(C)C)c1)CCOc1ccc2c(c1)OCO2 (centres unmarked) [Compound 26, 2-(3,5-Di-tert-butyl-4-hydroxyphenyl)-3-[3-[N-methyl-N-[2-(3,4-methylenedioxyphenoxy)ethyl]amino]propyl]-1,3-thiazolidin-4-one] | 37 | ++ | incidence of arrhythmia (Male Sprague-Dawley rats): by far superior effect to diltiazem in decreasing the incidnece of arrhythmia
11 |  | CC1SC(c2cc(C(C)(C)C)c(O)c(C(C)(C)C)c2)N(CCCN(C)CCOc2ccc3c(c2)OCO3)C1=O (centres unmarked) [Compound 41, 2-(3,5-Di-tert-butyl-4-hydroxyphenyl)-3-[3-[N-methyl-N-[2-(3,4-methylenedioxyphenoxy)ethyl]amino]propyl]-5-methyl-1,3-thiazolidin-4-one] | 56 |  | Percent (%) of Control (rabbit LDL; 5 x 10^-6 M): 6.2%
12 | 23 | CN(CCCN1C(=O)C(CCO)SC1c1cc(C(C)(C)C)c(O)c(C(C)(C)C)c1)CCOc1ccc2c(c1)OCO2 (centres unmarked) [Compound 49, 2-(3,5-Di-tert-butyl-4-hydroxyphenyl)-3-[3-[N-methyl-N-[2-(3,4-methylenedioxyphenoxy)ethyl]amino]propyl]-5-(2-hydroxyethyl)-1,3-thiazolidin-4-one] |  |  | 
13 | 21 | CN(CCCN1C(=O)C(OCCO)SC1c1cc(C(C)(C)C)c(O)c(C(C)(C)C)c1)CCOc1ccc2c(c1)OCO2 (centres unmarked) [Compound 55] |  |  | 
14 |  | CC1SC(c2cc(C(C)(C)C)c(O)c(C(C)(C)C)c2)N(CCCN(C)CCOc2ccc3c(c2)OCO3)C1=O (stereo not drawn) [Compound 73, 2,5-Cis-2-(3,5-di-tert-butyl-4-hydroxyphenyl)-3-[3-[N-methyl-N-[2-(3,4-methylenedioxyphenoxy)ethyl]amino]propyl]-5-methyl-1,3-thiazolidin-4-one] | 49 |  | minimal effective concentration [1]: 0.32 µM
15 |  | COc1ccc([C@@H]2Sc3ccccc3N(CCN(C)C)C(=O)[C@@H]2OC(C)=O)cc1 [Diltiazem, reference compound] |  | - | 

Row | SMILES | IC50 (thoracic aorta; Rattus norvegicus) [nM] | IC50 (thoracic aorta) [nM] | Survival Rate of Cells [4] | also measured
16 | CN(CCCCN1C(=O)CSC1c1cc(C(C)(C)C)c(O)c(C(C)(C)C)c1)CCOc1ccc2c(c1)OCO2 (centres unmarked) [Compound 8] | 170 |  | ++ | 
17 | CN(CCCCCN1C(=O)CSC1c1cc(C(C)(C)C)c(O)c(C(C)(C)C)c1)CCOc1ccc2c(c1)OCO2 (centres unmarked) [Compound 9] | 28 |  | ++ | Percent (%) of Control (rabbit LDL; 5 x 10^-6 M): 5.9%
18 | CCN(CCCN1C(=O)CSC1c1cc(C(C)(C)C)c(O)c(C(C)(C)C)c1)CCOc1ccc2c(c1)OCO2 (centres unmarked) [Compound 12] | 63 |  | ++ | Percent (%) of Control (rabbit LDL; 5 x 10^-6 M): 6.4%
19 | CC1SC(c2cc(C(C)(C)C)c(O)c(C(C)(C)C)c2)N(CCCN(C)CCOc2ccc3c(c2)OCO3)C1=O (stereo not drawn) [Compound 72, 2,5-Trans-2-(3,5-di-tert-butyl-4-hydroxyphenyl)-3-[3-[N-methyl-[2-(3,4-methylenedioxyphenoxy)ethyl]amino]propyl]-5-methyl-1,3-thiazolidin-4-one] | 98 |  |  | 
